Several values for one entry are separate records, joined by “and”; a condition that tells them apart may be missing. Equal values may be shown once.
test system: SARS-CoV-2; experiment: microbe, parasite or virus in culture; type: cell-based; settings: 1 uM; call rule not given here

Row | Compound | HIT (2 Std, 1 uM)
1 | CC1(C)Cc2c(-c3ccccc3)c(-c3ccc(Cl)cc3)c(CC(=O)O)n2C1 [Licofelone, licofelone] | HIT
2 | O=C(O)CC[C@H]1CC[C@@](c2cc(F)ccc2F)(S(=O)(=O)c2ccc(Cl)cc2)CC1 [MK-0752, mk-0752] | HIT
3 | O=C(O)Cn1nnc(-c2cc(N3CCC(Oc4cc(F)ccc4Br)CC3)no2)n1 [MK-8245, mk-8245] | HIT
4 | CC1(C)S[C@@H]2[C@H](/N=C/N3CCCCCC3)C(=O)N2[C@H]1C(=O)O [Mecillinam, mecillinam] | HIT
5 | CN(C)[C@@H]1C(O)=C(C(N)=O)C(=O)[C@@]2(O)C(O)=C3C(=O)c4c(O)cccc4[C@@](C)(O)[C@H]3[C@H](O)[C@@H]12 [Oxytetracycline, oxytetracycline] | HIT

same assay, conditions: 1 uM, average log2FC infection (n=3) relative to DMSO

Row | Compound | Average Infection (1 uM)
6 | CC1(C)Cc2c(-c3ccccc3)c(-c3ccc(Cl)cc3)c(CC(=O)O)n2C1 [Licofelone, licofelone] | −0.7411
7 | O=C(O)CC[C@H]1CC[C@@](c2cc(F)ccc2F)(S(=O)(=O)c2ccc(Cl)cc2)CC1 [MK-0752, mk-0752] | −0.4386
8 | O=C(O)Cn1nnc(-c2cc(N3CCC(Oc4cc(F)ccc4Br)CC3)no2)n1 [MK-8245, mk-8245] | 0.7764
9 | CC1(C)S[C@@H]2[C@H](/N=C/N3CCCCCC3)C(=O)N2[C@H]1C(=O)O [Mecillinam, mecillinam] | −3.47
10 | CN(C)[C@@H]1C(O)=C(C(N)=O)C(=O)[C@@]2(O)C(O)=C3C(=O)c4c(O)cccc4[C@@](C)(O)[C@H]3[C@H](O)[C@@H]12 [Oxytetracycline, oxytetracycline] | −0.4729

same assay, conditions: 5 uM

Row | Compound | HIT (2 Stdv, 5 uM)
11 | CC1(C)Cc2c(-c3ccccc3)c(-c3ccc(Cl)cc3)c(CC(=O)O)n2C1 [Licofelone, licofelone] | HIT

same assay, conditions: 5 uM, average log2FC infection (n=3) relative to DMSO

Row | Compound | Average Infection (5 uM)
12 | CC1(C)Cc2c(-c3ccccc3)c(-c3ccc(Cl)cc3)c(CC(=O)O)n2C1 [Licofelone, licofelone] | −0.555
13 | O=C(O)CC[C@H]1CC[C@@](c2cc(F)ccc2F)(S(=O)(=O)c2ccc(Cl)cc2)CC1 [MK-0752, mk-0752] | −0.353
14 | O=C(O)Cn1nnc(-c2cc(N3CCC(Oc4cc(F)ccc4Br)CC3)no2)n1 [MK-8245, mk-8245] | −0.05739
15 | CC1(C)S[C@@H]2[C@H](/N=C/N3CCCCCC3)C(=O)N2[C@H]1C(=O)O [Mecillinam, mecillinam] | −0.06608
16 | CN(C)[C@@H]1C(O)=C(C(N)=O)C(=O)[C@@]2(O)C(O)=C3C(=O)c4c(O)cccc4[C@@](C)(O)[C@H]3[C@H](O)[C@@H]12 [Oxytetracycline, oxytetracycline] | −0.1642

same assay, conditions: Severe acute respiratory syndrome coronavirus 2, 1 uM, single replicate, relative to negative control DMSO; read-out: Normalized Infection (1 uM)

Row | Compound | activity at 1 µM [%]
17 | CC1(C)Cc2c(-c3ccccc3)c(-c3ccc(Cl)cc3)c(CC(=O)O)n2C1 [Licofelone, licofelone] | 59.1
18 | O=C(O)CC[C@H]1CC[C@@](c2cc(F)ccc2F)(S(=O)(=O)c2ccc(Cl)cc2)CC1 [MK-0752, mk-0752] | 70.8
19 | CN(C)[C@@H]1C(O)=C(C(N)=O)C(=O)[C@@]2(O)C(O)=C3C(=O)c4c(O)cccc4[C@@](C)(O)[C@H]3[C@H](O)[C@@H]12 [Oxytetracycline, oxytetracycline] | 83.8

same assay, conditions: Severe acute respiratory syndrome coronavirus 2, 5 uM, single replicate, relative to negative control DMSO; read-out: Normalized Infection (5 uM)

Row | Compound | activity at 5 µM [%]
20 | CC1(C)S[C@@H]2[C@H](/N=C/N3CCCCCC3)C(=O)N2[C@H]1C(=O)O [Mecillinam, mecillinam] | 104

same assay, conditions: overall, 1 or 5 uM

Row | Compound | HIT
21 | CC1(C)Cc2c(-c3ccccc3)c(-c3ccc(Cl)cc3)c(CC(=O)O)n2C1 [Licofelone, licofelone] | Yes
22 | O=C(O)CC[C@H]1CC[C@@](c2cc(F)ccc2F)(S(=O)(=O)c2ccc(Cl)cc2)CC1 [MK-0752, mk-0752] | Yes
23 | O=C(O)Cn1nnc(-c2cc(N3CCC(Oc4cc(F)ccc4Br)CC3)no2)n1 [MK-8245, mk-8245] | Yes
24 | CC1(C)S[C@@H]2[C@H](/N=C/N3CCCCCC3)C(=O)N2[C@H]1C(=O)O [Mecillinam, mecillinam] | Yes
25 | CN(C)[C@@H]1C(O)=C(C(N)=O)C(=O)[C@@]2(O)C(O)=C3C(=O)c4c(O)cccc4[C@@](C)(O)[C@H]3[C@H](O)[C@@H]12 [Oxytetracycline, oxytetracycline] | Yes

test system: not given; experiment: not given; settings: 1 uM

Row | Compound | Toxic (1 uM)
26 | O=C(O)CC[C@H]1CC[C@@](c2cc(F)ccc2F)(S(=O)(=O)c2ccc(Cl)cc2)CC1 [MK-0752, mk-0752] | 0 (non-toxic (Normalized Cell number>0.65)
27 | O=C(O)Cn1nnc(-c2cc(N3CCC(Oc4cc(F)ccc4Br)CC3)no2)n1 [MK-8245, mk-8245] | 0 (non-toxic (Normalized Cell number>0.65)
28 | CC1(C)S[C@@H]2[C@H](/N=C/N3CCCCCC3)C(=O)N2[C@H]1C(=O)O [Mecillinam, mecillinam] | 0 (non-toxic (Normalized Cell number>0.65)
29 | CN(C)[C@@H]1C(O)=C(C(N)=O)C(=O)[C@@]2(O)C(O)=C3C(=O)c4c(O)cccc4[C@@](C)(O)[C@H]3[C@H](O)[C@@H]12 [Oxytetracycline, oxytetracycline] | 0 (non-toxic (Normalized Cell number>0.65)

same assay, conditions: 5 uM

Row | Compound | Toxic (5 uM)
30 | CC1(C)Cc2c(-c3ccccc3)c(-c3ccc(Cl)cc3)c(CC(=O)O)n2C1 [Licofelone, licofelone] | 0 (non-toxic (Normalized Cell number>0.65)
31 | O=C(O)CC[C@H]1CC[C@@](c2cc(F)ccc2F)(S(=O)(=O)c2ccc(Cl)cc2)CC1 [MK-0752, mk-0752] | 0 (non-toxic (Normalized Cell number>0.65)
32 | O=C(O)Cn1nnc(-c2cc(N3CCC(Oc4cc(F)ccc4Br)CC3)no2)n1 [MK-8245, mk-8245] | 0 (non-toxic (Normalized Cell number>0.65)
33 | CC1(C)S[C@@H]2[C@H](/N=C/N3CCCCCC3)C(=O)N2[C@H]1C(=O)O [Mecillinam, mecillinam] | 0 (non-toxic (Normalized Cell number>0.65)
34 | CN(C)[C@@H]1C(O)=C(C(N)=O)C(=O)[C@@]2(O)C(O)=C3C(=O)c4c(O)cccc4[C@@](C)(O)[C@H]3[C@H](O)[C@@H]12 [Oxytetracycline, oxytetracycline] | 0 (non-toxic (Normalized Cell number>0.65)

same assay, conditions: compound at 1 uM, average of normalized cell number, n=3, relative to DMSO

Row | Compound | Average Cell Number (1 uM)
35 | CC1(C)Cc2c(-c3ccccc3)c(-c3ccc(Cl)cc3)c(CC(=O)O)n2C1 [Licofelone, licofelone] | 0.6254
36 | O=C(O)CC[C@H]1CC[C@@](c2cc(F)ccc2F)(S(=O)(=O)c2ccc(Cl)cc2)CC1 [MK-0752, mk-0752] | 0.6912
37 | O=C(O)Cn1nnc(-c2cc(N3CCC(Oc4cc(F)ccc4Br)CC3)no2)n1 [MK-8245, mk-8245] | 0.7263
38 | CC1(C)S[C@@H]2[C@H](/N=C/N3CCCCCC3)C(=O)N2[C@H]1C(=O)O [Mecillinam, mecillinam] | 1.097
39 | CN(C)[C@@H]1C(O)=C(C(N)=O)C(=O)[C@@]2(O)C(O)=C3C(=O)c4c(O)cccc4[C@@](C)(O)[C@H]3[C@H](O)[C@@H]12 [Oxytetracycline, oxytetracycline] | 0.8352

same assay, conditions: compound at 1 uM, single replicate, raw cell count

Row | Compound | Cell Number (1 uM)
40 | CC1(C)Cc2c(-c3ccccc3)c(-c3ccc(Cl)cc3)c(CC(=O)O)n2C1 [Licofelone, licofelone] | 3716 and 3591 and 3687
41 | O=C(O)CC[C@H]1CC[C@@](c2cc(F)ccc2F)(S(=O)(=O)c2ccc(Cl)cc2)CC1 [MK-0752, mk-0752] | 3905 and 4070 and 4177
42 | CC1(C)S[C@@H]2[C@H](/N=C/N3CCCCCC3)C(=O)N2[C@H]1C(=O)O [Mecillinam, mecillinam] | 6136 and 6699 and 6450
43 | CN(C)[C@@H]1C(O)=C(C(N)=O)C(=O)[C@@]2(O)C(O)=C3C(=O)c4c(O)cccc4[C@@](C)(O)[C@H]3[C@H](O)[C@@H]12 [Oxytetracycline, oxytetracycline] | 5031 and 4848 and 4803

same assay, conditions: compound at 1 uM, single replicate, relative to negative control DMSO

Row | Compound | Normalized Cell Number (1 uM)
44 | CC1(C)Cc2c(-c3ccccc3)c(-c3ccc(Cl)cc3)c(CC(=O)O)n2C1 [Licofelone, licofelone] | 0.6341 and 0.6128 and 0.6292
45 | O=C(O)CC[C@H]1CC[C@@](c2cc(F)ccc2F)(S(=O)(=O)c2ccc(Cl)cc2)CC1 [MK-0752, mk-0752] | 0.6664 and 0.6945 and 0.7128
46 | CC1(C)S[C@@H]2[C@H](/N=C/N3CCCCCC3)C(=O)N2[C@H]1C(=O)O [Mecillinam, mecillinam] | 1.047 and 1.143 and 1.101
47 | CN(C)[C@@H]1C(O)=C(C(N)=O)C(=O)[C@@]2(O)C(O)=C3C(=O)c4c(O)cccc4[C@@](C)(O)[C@H]3[C@H](O)[C@@H]12 [Oxytetracycline, oxytetracycline] | 0.8585 and 0.8273 and 0.8196

same assay, conditions: compound at 5 uM, average of normalized cell number, n=3, relative to DMSO

Row | Compound | Average Cell Number (5 uM)
48 | CC1(C)Cc2c(-c3ccccc3)c(-c3ccc(Cl)cc3)c(CC(=O)O)n2C1 [Licofelone, licofelone] | 0.8061
49 | O=C(O)CC[C@H]1CC[C@@](c2cc(F)ccc2F)(S(=O)(=O)c2ccc(Cl)cc2)CC1 [MK-0752, mk-0752] | 0.8746
50 | O=C(O)Cn1nnc(-c2cc(N3CCC(Oc4cc(F)ccc4Br)CC3)no2)n1 [MK-8245, mk-8245] | 0.9401
51 | CC1(C)S[C@@H]2[C@H](/N=C/N3CCCCCC3)C(=O)N2[C@H]1C(=O)O [Mecillinam, mecillinam] | 0.9928
52 | CN(C)[C@@H]1C(O)=C(C(N)=O)C(=O)[C@@]2(O)C(O)=C3C(=O)c4c(O)cccc4[C@@](C)(O)[C@H]3[C@H](O)[C@@H]12 [Oxytetracycline, oxytetracycline] | 0.976

same assay, conditions: compound at 5 uM, single replicate, raw cell count

Row | Compound | Cell Number (5 uM)
53 | CC1(C)Cc2c(-c3ccccc3)c(-c3ccc(Cl)cc3)c(CC(=O)O)n2C1 [Licofelone, licofelone] | 4830 and 4798 and 4704
54 | O=C(O)CC[C@H]1CC[C@@](c2cc(F)ccc2F)(S(=O)(=O)c2ccc(Cl)cc2)CC1 [MK-0752, mk-0752] | 5100 and 5130 and 5319
55 | O=C(O)Cn1nnc(-c2cc(N3CCC(Oc4cc(F)ccc4Br)CC3)no2)n1 [MK-8245, mk-8245] | 5812 and 4892 and 6009
56 | CC1(C)S[C@@H]2[C@H](/N=C/N3CCCCCC3)C(=O)N2[C@H]1C(=O)O [Mecillinam, mecillinam] | 6088 and 5755 and 5808
57 | CN(C)[C@@H]1C(O)=C(C(N)=O)C(=O)[C@@]2(O)C(O)=C3C(=O)c4c(O)cccc4[C@@](C)(O)[C@H]3[C@H](O)[C@@H]12 [Oxytetracycline, oxytetracycline] | 6014 and 5768 and 5570

same assay, conditions: compound at 5 uM, single replicate, relative to negative control DMSO

Row | Compound | Normalized Cell Number (5 uM)
58 | CC1(C)Cc2c(-c3ccccc3)c(-c3ccc(Cl)cc3)c(CC(=O)O)n2C1 [Licofelone, licofelone] | 0.815 and 0.8096 and 0.7938
59 | O=C(O)CC[C@H]1CC[C@@](c2cc(F)ccc2F)(S(=O)(=O)c2ccc(Cl)cc2)CC1 [MK-0752, mk-0752] | 0.8606 and 0.8656 and 0.8975
60 | O=C(O)Cn1nnc(-c2cc(N3CCC(Oc4cc(F)ccc4Br)CC3)no2)n1 [MK-8245, mk-8245] | 0.9807 and 0.8255 and 1.014
61 | CC1(C)S[C@@H]2[C@H](/N=C/N3CCCCCC3)C(=O)N2[C@H]1C(=O)O [Mecillinam, mecillinam] | 1.027 and 0.9711 and 0.9801
62 | CN(C)[C@@H]1C(O)=C(C(N)=O)C(=O)[C@@]2(O)C(O)=C3C(=O)c4c(O)cccc4[C@@](C)(O)[C@H]3[C@H](O)[C@@H]12 [Oxytetracycline, oxytetracycline] | 1.015 and 0.9733 and 0.9399

Reference: patent US20240082228A1, “SARS-COV-2 THERAPEUTICS” (priority 2021, published 2024)
